Measured values from the kinase profiling compilation of Christmann-Franck et al. (2016).

Legend:
Test in all cases: Caliper, Mobility shift assay off-chip
MST1R (human) = MST1R (human) (UniProt Q04912)
DAPK3 (human) = DAPK3 (human) (UniProt O43293)
MARK4 (human) = MARK4 (human) (UniProt Q96L34)
PHKG1 (human) = PHKG1 (human) (UniProt Q16816)
TXK (human) = TXK (human) (UniProt P42681)
ROCK1 (human) = ROCK1 (human) (UniProt Q13464)
EPHB1 (human) = EPHB1 (human) (UniProt P54762)
BLK (human) = BLK (human) (UniProt P51451)
Chain of BLK (human) (P51451 whole entry, looked up): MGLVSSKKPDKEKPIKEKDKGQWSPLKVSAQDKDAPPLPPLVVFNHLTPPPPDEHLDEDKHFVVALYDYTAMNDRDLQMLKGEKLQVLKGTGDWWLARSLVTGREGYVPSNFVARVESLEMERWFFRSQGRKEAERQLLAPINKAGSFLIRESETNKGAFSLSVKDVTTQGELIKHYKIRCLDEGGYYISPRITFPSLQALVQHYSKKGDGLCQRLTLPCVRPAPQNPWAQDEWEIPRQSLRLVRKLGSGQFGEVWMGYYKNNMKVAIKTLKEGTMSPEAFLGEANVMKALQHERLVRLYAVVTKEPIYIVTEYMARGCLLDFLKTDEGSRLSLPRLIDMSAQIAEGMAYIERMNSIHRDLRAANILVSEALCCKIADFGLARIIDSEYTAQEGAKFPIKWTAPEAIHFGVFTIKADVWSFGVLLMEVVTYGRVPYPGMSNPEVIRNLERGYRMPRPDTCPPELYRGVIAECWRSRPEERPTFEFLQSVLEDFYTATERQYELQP

ALK (human) = ALK (human) (UniProt Q9UM73)
DYRK4 (human) = DYRK4 (human) (UniProt Q9NR20)
DYRK3 (human) = DYRK3 (human) (UniProt O43781)
AXL (human) = AXL (human) (UniProt P30530)
[1] = target: PRKAA2 PRKAB1 PRKAG1 (human) (UniProt Q9Y478+P54646+P54619)
Chain of PRKAA2 PRKAB1 PRKAG1 (human) (P54619 whole entry, looked up): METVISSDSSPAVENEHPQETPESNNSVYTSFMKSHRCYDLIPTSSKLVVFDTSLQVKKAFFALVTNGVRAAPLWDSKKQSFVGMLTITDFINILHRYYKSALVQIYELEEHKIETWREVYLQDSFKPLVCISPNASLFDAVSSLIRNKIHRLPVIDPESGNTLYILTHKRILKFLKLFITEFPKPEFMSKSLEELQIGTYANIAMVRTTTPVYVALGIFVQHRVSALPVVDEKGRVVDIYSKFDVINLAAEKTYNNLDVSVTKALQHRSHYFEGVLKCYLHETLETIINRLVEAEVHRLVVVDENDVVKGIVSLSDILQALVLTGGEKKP
Chain of PRKAA2 PRKAB1 PRKAG1 (human) (P54646 whole entry, looked up): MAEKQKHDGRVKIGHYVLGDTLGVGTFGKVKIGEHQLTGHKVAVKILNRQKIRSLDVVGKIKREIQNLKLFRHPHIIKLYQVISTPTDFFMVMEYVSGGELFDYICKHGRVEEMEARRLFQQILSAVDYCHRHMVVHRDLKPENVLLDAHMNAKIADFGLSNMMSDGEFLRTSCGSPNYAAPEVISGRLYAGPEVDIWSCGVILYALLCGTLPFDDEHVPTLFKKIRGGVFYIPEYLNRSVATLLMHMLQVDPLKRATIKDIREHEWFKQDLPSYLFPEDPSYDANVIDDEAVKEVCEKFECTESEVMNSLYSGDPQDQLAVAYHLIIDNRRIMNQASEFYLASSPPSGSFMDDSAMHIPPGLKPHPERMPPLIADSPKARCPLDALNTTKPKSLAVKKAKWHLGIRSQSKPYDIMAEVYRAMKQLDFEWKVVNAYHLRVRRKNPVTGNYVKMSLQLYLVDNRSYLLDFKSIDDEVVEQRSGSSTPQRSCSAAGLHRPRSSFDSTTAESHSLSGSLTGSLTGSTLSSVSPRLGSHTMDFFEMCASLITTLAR
Chain of PRKAA2 PRKAB1 PRKAG1 (human) (Q9Y478 whole entry, looked up): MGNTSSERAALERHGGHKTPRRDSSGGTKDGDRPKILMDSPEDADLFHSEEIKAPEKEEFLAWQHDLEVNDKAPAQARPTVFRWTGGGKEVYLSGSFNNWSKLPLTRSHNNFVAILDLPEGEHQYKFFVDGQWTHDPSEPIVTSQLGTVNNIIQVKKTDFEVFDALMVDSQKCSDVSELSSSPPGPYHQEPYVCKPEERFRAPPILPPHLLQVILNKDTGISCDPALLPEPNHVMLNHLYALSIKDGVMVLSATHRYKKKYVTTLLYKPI

[2] = system: EGFR (human), P00533 [T790M/L858R]
KIT (human) = KIT (human) (UniProt P10721)
CDK5 CDK5R1 p25 (human) = CDK5 CDK5R1 p25 (human) (UniProt Q15078+Q00535)
Chain of CDK5 CDK5R1 p25 (human) (Q00535 whole entry, looked up): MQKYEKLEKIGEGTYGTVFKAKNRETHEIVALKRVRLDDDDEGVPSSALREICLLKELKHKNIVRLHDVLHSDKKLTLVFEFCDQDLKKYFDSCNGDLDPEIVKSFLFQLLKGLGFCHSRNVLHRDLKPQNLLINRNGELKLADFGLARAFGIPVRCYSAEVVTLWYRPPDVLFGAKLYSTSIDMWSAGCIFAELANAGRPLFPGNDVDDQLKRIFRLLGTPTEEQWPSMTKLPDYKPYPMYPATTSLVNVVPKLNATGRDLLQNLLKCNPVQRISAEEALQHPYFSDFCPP
Chain of CDK5 CDK5R1 p25 (human) (Q15078 whole entry, looked up): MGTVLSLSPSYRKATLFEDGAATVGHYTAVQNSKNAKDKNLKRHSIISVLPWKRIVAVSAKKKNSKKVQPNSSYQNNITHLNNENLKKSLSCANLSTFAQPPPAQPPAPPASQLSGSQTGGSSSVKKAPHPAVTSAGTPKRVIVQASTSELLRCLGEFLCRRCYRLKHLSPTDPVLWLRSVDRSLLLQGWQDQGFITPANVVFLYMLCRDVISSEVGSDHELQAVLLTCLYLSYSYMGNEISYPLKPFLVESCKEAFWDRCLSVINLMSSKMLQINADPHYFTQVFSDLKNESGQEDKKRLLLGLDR

NTRK3 (human) = NTRK3 (human) (UniProt Q16288)
CAMK2A (human) = CAMK2A (human) (UniProt Q9UQM7)
RET (human) = RET (human) (UniProt P07949)
Chain of RET (human) (P07949 whole entry, looked up): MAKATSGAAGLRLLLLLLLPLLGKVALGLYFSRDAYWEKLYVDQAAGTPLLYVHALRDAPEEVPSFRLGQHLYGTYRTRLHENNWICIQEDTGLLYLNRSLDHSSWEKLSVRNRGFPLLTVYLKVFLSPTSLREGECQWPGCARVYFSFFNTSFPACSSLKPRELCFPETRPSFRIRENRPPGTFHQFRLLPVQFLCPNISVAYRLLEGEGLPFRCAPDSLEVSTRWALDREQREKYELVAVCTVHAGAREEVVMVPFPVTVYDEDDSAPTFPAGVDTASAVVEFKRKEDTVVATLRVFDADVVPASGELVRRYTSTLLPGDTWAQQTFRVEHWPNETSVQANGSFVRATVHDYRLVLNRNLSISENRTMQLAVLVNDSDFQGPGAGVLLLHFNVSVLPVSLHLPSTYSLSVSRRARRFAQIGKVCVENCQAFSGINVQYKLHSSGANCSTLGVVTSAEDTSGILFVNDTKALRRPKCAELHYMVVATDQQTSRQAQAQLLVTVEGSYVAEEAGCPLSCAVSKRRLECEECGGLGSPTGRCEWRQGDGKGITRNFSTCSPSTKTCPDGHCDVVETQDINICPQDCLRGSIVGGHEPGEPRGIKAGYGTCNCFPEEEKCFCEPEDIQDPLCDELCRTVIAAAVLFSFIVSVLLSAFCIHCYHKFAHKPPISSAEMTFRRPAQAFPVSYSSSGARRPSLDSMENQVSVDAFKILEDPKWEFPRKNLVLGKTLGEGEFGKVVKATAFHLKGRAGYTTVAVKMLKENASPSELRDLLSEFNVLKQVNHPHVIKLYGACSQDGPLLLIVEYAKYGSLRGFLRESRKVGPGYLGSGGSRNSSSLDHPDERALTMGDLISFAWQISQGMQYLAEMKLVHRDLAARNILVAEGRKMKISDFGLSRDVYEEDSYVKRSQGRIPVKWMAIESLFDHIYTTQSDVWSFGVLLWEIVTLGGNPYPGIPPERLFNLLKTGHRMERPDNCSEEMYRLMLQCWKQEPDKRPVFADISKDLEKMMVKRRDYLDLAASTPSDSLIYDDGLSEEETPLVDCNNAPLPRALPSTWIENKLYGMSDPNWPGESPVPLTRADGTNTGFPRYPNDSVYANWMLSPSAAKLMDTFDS

PIM3 (human) = PIM3 (human) (UniProt Q86V86)
[3] = system: FGFR3 (human), P22607 [K650E]
CDK1 (human) = CDK1 (human) (UniProt P06493)
Chain of CDK1 (human) (P06493 whole entry, looked up): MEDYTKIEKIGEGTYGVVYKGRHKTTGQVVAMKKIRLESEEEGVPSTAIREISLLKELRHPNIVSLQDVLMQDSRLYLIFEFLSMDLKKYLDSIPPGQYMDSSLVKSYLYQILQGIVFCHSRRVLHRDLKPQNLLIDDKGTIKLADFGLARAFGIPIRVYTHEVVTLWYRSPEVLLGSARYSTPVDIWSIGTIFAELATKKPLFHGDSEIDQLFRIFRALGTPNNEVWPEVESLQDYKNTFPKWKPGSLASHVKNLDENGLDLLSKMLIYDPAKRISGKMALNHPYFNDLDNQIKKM

ITK (human) = ITK (human) (UniProt Q08881)
PRKCI (human) = PRKCI (human) (UniProt P41743)
YES1 (human) = YES1 (human) (UniProt P07947)
CLK2 (human) = CLK2 (human) (UniProt P49760)
JAK2 JH1 JH2 (human) = JAK2 JH1 JH2 (human) (UniProt O60674)
PASK (human) = PASK (human) (UniProt Q96RG2)
MERTK (human) = MERTK (human) (UniProt Q12866)
RPS6KA6 KD1 KD2 (human) = RPS6KA6 KD1 KD2 (human) (UniProt Q9UK32)
HIPK1 (human) = HIPK1 (human) (UniProt Q86Z02)
CSNK1G3 (human) = CSNK1G3 (human) (UniProt Q9Y6M4)
DAPK1 (human) = DAPK1 (human) (UniProt P53355)

Chain of ROCK1 (human) (Q13464 whole entry, looked up): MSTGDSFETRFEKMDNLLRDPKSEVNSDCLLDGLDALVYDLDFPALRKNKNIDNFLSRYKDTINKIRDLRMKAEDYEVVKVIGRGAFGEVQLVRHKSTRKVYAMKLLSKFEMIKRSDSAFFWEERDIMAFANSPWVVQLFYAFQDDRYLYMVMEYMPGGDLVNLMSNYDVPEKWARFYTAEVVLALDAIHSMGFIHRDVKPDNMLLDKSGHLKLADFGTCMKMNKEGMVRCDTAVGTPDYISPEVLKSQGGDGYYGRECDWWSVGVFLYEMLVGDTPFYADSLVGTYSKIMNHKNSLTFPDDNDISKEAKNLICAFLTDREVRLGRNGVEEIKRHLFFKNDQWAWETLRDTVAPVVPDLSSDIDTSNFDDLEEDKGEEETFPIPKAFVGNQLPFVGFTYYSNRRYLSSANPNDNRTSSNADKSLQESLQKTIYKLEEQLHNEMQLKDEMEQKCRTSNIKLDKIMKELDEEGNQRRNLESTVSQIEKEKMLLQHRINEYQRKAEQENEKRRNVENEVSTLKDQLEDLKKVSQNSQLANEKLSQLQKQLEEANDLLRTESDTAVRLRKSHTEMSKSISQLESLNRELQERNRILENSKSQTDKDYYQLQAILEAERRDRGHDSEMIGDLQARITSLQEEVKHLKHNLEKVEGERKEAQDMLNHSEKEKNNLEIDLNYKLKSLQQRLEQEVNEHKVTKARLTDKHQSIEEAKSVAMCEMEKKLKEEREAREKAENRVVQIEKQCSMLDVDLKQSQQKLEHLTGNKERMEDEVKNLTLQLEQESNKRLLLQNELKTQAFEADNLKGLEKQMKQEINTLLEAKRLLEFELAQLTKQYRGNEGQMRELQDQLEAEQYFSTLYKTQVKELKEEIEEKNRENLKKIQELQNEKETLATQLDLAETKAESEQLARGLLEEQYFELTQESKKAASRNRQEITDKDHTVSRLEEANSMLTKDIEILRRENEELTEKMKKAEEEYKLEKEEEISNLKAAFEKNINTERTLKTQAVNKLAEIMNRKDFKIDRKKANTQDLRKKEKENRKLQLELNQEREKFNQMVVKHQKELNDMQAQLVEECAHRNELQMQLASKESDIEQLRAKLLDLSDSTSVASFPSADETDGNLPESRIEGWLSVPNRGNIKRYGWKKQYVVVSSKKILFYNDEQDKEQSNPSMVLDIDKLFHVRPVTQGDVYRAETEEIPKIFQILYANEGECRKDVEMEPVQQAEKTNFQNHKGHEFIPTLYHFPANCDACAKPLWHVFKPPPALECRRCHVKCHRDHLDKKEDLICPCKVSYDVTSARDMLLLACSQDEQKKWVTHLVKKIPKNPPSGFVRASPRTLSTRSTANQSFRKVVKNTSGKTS

- inhibition (MST1R (human); compound 0.1 µM): -3.6%
- inhibition (MST1R (human); compound 1.0 µM): 20.5%
- inhibition (DAPK3 (human); compound 0.1 µM): -1.7%
- inhibition (DAPK3 (human); compound 1.0 µM): -4.5%
- inhibition (MARK4 (human); compound 0.1 µM): 0%
- inhibition (MARK4 (human); compound 1.0 µM): -3.4%
- inhibition (PHKG1 (human); compound 0.1 µM): 7.9%
- inhibition (PHKG1 (human); compound 1.0 µM): 1.2%
- inhibition (TXK (human); compound 0.1 µM): -5.1%
- inhibition (TXK (human); compound 1.0 µM): -9.7%
- inhibition (ROCK1 (human); compound 0.1 µM): 4.2%
- inhibition (ROCK1 (human); compound 1.0 µM): 8.2%
- inhibition (EPHB1 (human); compound 0.1 µM): 1%
- inhibition (EPHB1 (human); compound 1.0 µM): 3.3%
- inhibition (BLK (human); compound 0.1 µM): -0.5%
- inhibition (BLK (human); compound 1.0 µM): 16.6%
- inhibition (ALK (human); compound 0.1 µM): 6.9%
- inhibition (ALK (human); compound 1.0 µM): -9.5%
- inhibition (DYRK4 (human); compound 0.1 µM): 1.8%
- inhibition (DYRK4 (human); compound 1.0 µM): 0.5%
- inhibition (DYRK3 (human); compound 0.1 µM): -1.4%
- inhibition (DYRK3 (human); compound 1.0 µM): 2.9%
- inhibition (AXL (human); compound 0.1 µM): 6.1%
- inhibition (AXL (human); compound 1.0 µM): 20.3%
- inhibition ([1]; compound 0.1 µM): 5.1%
- inhibition ([1]; compound 1.0 µM): -1.5%
- inhibition ([2]; compound 0.1 µM): -0.8%
- inhibition ([2]; compound 1.0 µM): -3.6%
- inhibition (KIT (human); compound 0.1 µM): -1.6%
- inhibition (KIT (human); compound 1.0 µM): 6.6%
- inhibition (CDK5 CDK5R1 p25 (human); compound 0.1 µM): 2.2%
- inhibition (CDK5 CDK5R1 p25 (human); compound 1.0 µM): 0.3%
- inhibition (NTRK3 (human); compound 0.1 µM): 6%
- inhibition (NTRK3 (human); compound 1.0 µM): 10.4%
- inhibition (CAMK2A (human); compound 0.1 µM): -8.9%
- inhibition (CAMK2A (human); compound 1.0 µM): -3.1%
- inhibition (RET (human); compound 0.1 µM): 1.9%
- inhibition (RET (human); compound 1.0 µM): 2.8%
- inhibition (PIM3 (human); compound 0.1 µM): -3.4%
- inhibition (PIM3 (human); compound 1.0 µM): 0.3%
- inhibition ([3]; compound 0.1 µM): -1.7%
- inhibition ([3]; compound 1.0 µM): 2.1%
- inhibition (CDK1 (human); compound 0.1 µM): -3.9%
- inhibition (CDK1 (human); compound 1.0 µM): 1.2%
- inhibition (ITK (human); compound 0.1 µM): -5%
- inhibition (ITK (human); compound 1.0 µM): -1.8%
- inhibition (PRKCI (human); compound 0.1 µM): -0.6%
- inhibition (PRKCI (human); compound 1.0 µM): 1.4%
- inhibition (YES1 (human); compound 0.1 µM): -0.7%
- inhibition (YES1 (human); compound 1.0 µM): -5.3%
- inhibition (CLK2 (human); compound 0.1 µM): 3.4%
- inhibition (CLK2 (human); compound 1.0 µM): 4.1%
- inhibition (JAK2 JH1 JH2 (human); compound 0.1 µM): -2.8%
- inhibition (JAK2 JH1 JH2 (human); compound 1.0 µM): 5.9%
- inhibition (PASK (human); compound 0.1 µM): 6.7%
- inhibition (PASK (human); compound 1.0 µM): 3.2%
- inhibition (MERTK (human); compound 0.1 µM): 2.5%
- inhibition (MERTK (human); compound 1.0 µM): 15.5%
- inhibition (RPS6KA6 KD1 KD2 (human); compound 0.1 µM): 5.9%
- inhibition (RPS6KA6 KD1 KD2 (human); compound 1.0 µM): -8.4%
- inhibition (HIPK1 (human); compound 0.1 µM): 7.2%
- inhibition (HIPK1 (human); compound 1.0 µM): -0.1%
- inhibition (CSNK1G3 (human); compound 0.1 µM): 0.3%
- inhibition (CSNK1G3 (human); compound 1.0 µM): 15.2%
- inhibition (DAPK1 (human); compound 0.1 µM): 2.4%
- inhibition (DAPK1 (human); compound 1.0 µM): 0.1%
Compound: O=C(CCc1ccc2ccc3ncc(C4CCNCC4)cc3c(=O)c2c1)NCc1ccccn1
